Literature values as cited in PMC4931877 (The Journal of Pharmacology and Experimental Therapeutics, 2016).

System: γ-secretase
Settings: ref Fleisher et al., 2008; Coric et al., 2012; Doody et al., 2013; cited from earlier work

Row | Structure (SMILES) | outcome of mild-moderate AD clinical trials
1 | NC(=O)[C@@H](CCC(F)(F)F)N(Cc1ccc(-c2ncon2)cc1F)S(=O)(=O)c1ccc(Cl)cc1 [BMS-708163, (2R)-2-[(4-chlorophenyl)sulfonyl-[[2-fluoro-4-(1,2,4-oxadiazol-3-yl)phenyl]methyl]amino]-5,5,5-trifluoropentanamide] | Notch-related nonmelanoma skin cancers and/or progression and worsening of cognitive measures
2 | CC(C)[C@H](O)C(=O)N[C@@H](C)C(=O)N[C@@H]1C(=O)N(C)CCc2ccccc21 [LY450139] | Notch-related nonmelanoma skin cancers and/or progression and worsening of cognitive measures
